According to US8859018B2, “Delivery carrier for antimicrobial essential oils” (Nestec S.A., priority 2010, dated 2014):

Columns and labels:
Aspergillus niger = assay: Challenge test in fresh and aged oyster sauce (Example 3); type: cell-based; conditions: oyster sauce aged 0 to 6 months; KS 0.10 wt %, garlic EO 0.12 wt %; one week to at least 4 weeks after start
Description: (§1) Fresh oyster sauce (OS) tested was the commercial MAGGI Oyster Sauce product from Singapore. The OS was first pasteurized according to standard procedures. After cooling, the samples were divided into 3 groups: A) a negative control group where just 5% of sterilized water was added; B) a positive control group where potassium sorbate (KS) was added to a final concentration of 0.10 wt %; and group C) where a garlic EO acacia gum emulsion (1:1 wt ratio) was added to a final concentration of the EO of 0.12 wt %. Potassium sorbate (E number 202) is widely used as a food preservative and serves here as a positive control. Garlic EO is from Synthite Industries. It was emulsified with acacia gum in the same way as the oregano EO in Example 1.
(§2) The three OS samples were stored (i.e. aged) at 30° C. and ca. 65% relative humidity.
(§3) Microbiological challenge tests were performed directly after preparation of the OS samples, labelled as 0 month, and then after 3 and 6 months of storage, respectively. The challenge tests were performed in the same way as described in Example 1. However, instead of using Saccharomyces cerevisiae as spoilage culture, individual cultures of Aspergillus niger, Penicillium nalgiovense and Eurotium amstelodami were used.

Eurotium amstelodami = assay: as above; type: cell-based; conditions: oyster sauce aged 0 to 6 months; KS 0.10 wt %, garlic EO 0.12 wt %; one week to at least 4 weeks after start
Description: as §1, §2, §3

Penicillium nalgiovense = assay: as above; type: cell-based; conditions: oyster sauce aged 0 to 6 months; KS 0.10 wt %, garlic EO 0.12 wt %; one week to at least 4 weeks after start
Description: as §1, §2, §3

[1] = Un-inoculated control samples of the challenge tests in MOS / MAS; conditions: 0.10%
Description: Challenge Test with moulds was according to the following steps: 1) Add 100 g of MOS into a 250 ml sterile Schott bottle with screw-cap cover; 2) Add 0.1 to 2 ml of mould (A. niger/P. nalgiovence/E. amstelodami) inoculum to meet the target inoculum of 10^2-10^3 cfu/g of MOS into the 100 g MOS and shake to mix well; 3) Pour 35 g of the inoculated MOS into a petri dish. Perform this in duplicate; 4) Pipette 1 g of inoculated MOS from the Schott bottle into 9 ml sterile Tryptone Salt 0.1% diluents and vortex. Perform this in duplicate; 5) Plate 0.1-0.5 ml of inoculated Tryptone Salt 0.1% onto DG18 plates at appropriate dilutions by Spread Plate Method. Incubate the agar plates at 25° C. for 5 days to enumerate the initial mould count; 6) Incubate the inoculated MOS in petri dishes at 30° C. for a week. Monitor for mould growth by visual observation after one week. Perform this mould growth monitoring for a period of 4 weeks; 7) The control was prepared by repeating steps 3 to 6 without using any inoculum. The control was plated onto PCA with Cycloheximide plates.
Challenge Test with yeasts was according to the following steps: 1) Add 100 g of MOS into a 250 ml sterile Schott bottle with screw-cap cover; 2) Add 0.1 ml to 2 ml of yeast (Z. bailii) inoculum to meet the target inoculum of 10^2 to 10^3 cfu/g of MOS into the 100 g MOS and shake to mix well; 3) Pour 35 g of the inoculated MOS into two 150 ml sterile disposable polypropylene container with screw-cap cover; 4) Pipette 1 g of inoculated MOS into 9 ml sterile Tryptone Salt 0.1% diluent and vortex. Perform this in duplicate; 5) Plate 0.1 ml to 0.5 ml of inoculated Tryptone Salt 0.1% onto MEA at appropriate dilutions by Spread Plate Method. Incubate the plates at 30° C. for 3 days for the enumeration of the initial yeast count; 6) Incubate the inoculated MOS in 150 ml containers at 30° C. for a week; 7) After one week, repeat steps 4 to 6 for the weekly monitoring of Z. bailii growth behavior in MOS. Perform the monitoring for a period of 4 weeks; 8) The control was prepared by repeating steps 3 to 7 without using any inoculum.
The method for producing MAS was the same as for the MOS production in experiment 4. The preparation of the microorganism cultures as well as the challenge tests were identical to the ones described in experiment 4 as well.

[2] = MAGGI Abalone Sauce, age 0 month
[3] = MAGGI Abalone Sauce, age 1 month
[4] = MAGGI Abalone Sauce, age 3 month
[5] = MAGGI Abalone Sauce, age 6 month
[6] = MAGGI Abalone Sauce, age 10 month
[7] = MAGGI Abalone Sauce, age 12 month
[8] = MAGGI Oyster Sauce, age 0 month

C/C=C/C=C/C(=O)[O-].[K+] [KS, potassium sorbate]
growth of the mould strain (Aspergillus niger): no detectable growth | growth of the mould strain (Eurotium amstelodami): no detectable growth | growth of the mould strain (Penicillium nalgiovense): no detectable growth | Week 0 (Log cfu/g) [1, 2]: <1.00 Log cfu/g | Week 1 (Log cfu/g) [1, 2]: <1.00 Log cfu/g | Week 2 (Log cfu/g) [1, 2]: <1.00 Log cfu/g | Week 3 (Log cfu/g) [1, 2]: <1.00 Log cfu/g | Week 4 (Log cfu/g) [1, 2]: <1.00 Log cfu/g | Week 0 (Log cfu/g) [1, 3]: <1.00 Log cfu/g | Week 1 (Log cfu/g) [1, 3]: <1.00 Log cfu/g | Week 2 (Log cfu/g) [1, 3]: <1.00 Log cfu/g | Week 3 (Log cfu/g) [1, 3]: <1.00 Log cfu/g | Week 4 (Log cfu/g) [1, 3]: <1.00 Log cfu/g | Week 0 (Log cfu/g) [1, 4]: <1.00 Log cfu/g | Week 1 (Log cfu/g) [1, 4]: <1.00 Log cfu/g | Week 2 (Log cfu/g) [1, 4]: <1.00 Log cfu/g | Week 3 (Log cfu/g) [1, 4]: <1.00 Log cfu/g | Week 4 (Log cfu/g) [1, 4]: <1.00 Log cfu/g | Week 0 (Log cfu/g) [1, 5]: <1.00 Log cfu/g | Week 1 (Log cfu/g) [1, 5]: <1.00 Log cfu/g | Week 2 (Log cfu/g) [1, 5]: <1.00 Log cfu/g | Week 3 (Log cfu/g) [1, 5]: <1.00 Log cfu/g | Week 4 (Log cfu/g) [1, 5]: <1.00 Log cfu/g | Week 0 (Log cfu/g) [1, 6]: <1.00 Log cfu/g | Week 1 (Log cfu/g) [1, 6]: <1.00 Log cfu/g | Week 2 (Log cfu/g) [1, 6]: <1.00 Log cfu/g | Week 3 (Log cfu/g) [1, 6]: <1.00 Log cfu/g | Week 4 (Log cfu/g) [1, 6]: <1.00 Log cfu/g | Week 0 (Log cfu/g) [1, 7]: <1.00 Log cfu/g | Week 1 (Log cfu/g) [1, 7]: <1.30 Log cfu/g | Week 2 (Log cfu/g) [1, 7]: <1.30 Log cfu/g | Week 3 (Log cfu/g) [1, 7]: <1.30 Log cfu/g | Week 4 (Log cfu/g) [1, 7]: <1.30 Log cfu/g | Week 0 (Log cfu/g) [1, 8]: <1.30 Log cfu/g | Week 1 (Log cfu/g) [1, 8]: <1.30 Log cfu/g | Week 2 (Log cfu/g) [1, 8]: <1.30 Log cfu/g | Week 3 (Log cfu/g) [1, 8]: <1.30 Log cfu/g | Week 4 (Log cfu/g) [1, 8]: <1.30 Log cfu/g
